The results in this text go back to PMC6049504 (RNA, 2018).

SMILES strings stand for the structures.

Holding throughout (assay): biochemical
In assay [1] the target is TkTrm10 (Thermococcus kodakarensis, UniProt Q5JD38).
Assay [2] concerns the target TkTrm10 (Thermococcus kodakarensis, UniProt Q5JD38, D206A/D245A).
Assay [3] concerns the target TkTrm10 (Thermococcus kodakarensis, UniProt Q5JD38, D206N/D245N).
Assay [4] concerns the target TkTrm10 (Thermococcus kodakarensis, UniProt Q5JD38, D206L).

TkTrm10 (Thermococcus kodakarensis, UniProt Q5JD38), sequence (Q5JD38 whole entry): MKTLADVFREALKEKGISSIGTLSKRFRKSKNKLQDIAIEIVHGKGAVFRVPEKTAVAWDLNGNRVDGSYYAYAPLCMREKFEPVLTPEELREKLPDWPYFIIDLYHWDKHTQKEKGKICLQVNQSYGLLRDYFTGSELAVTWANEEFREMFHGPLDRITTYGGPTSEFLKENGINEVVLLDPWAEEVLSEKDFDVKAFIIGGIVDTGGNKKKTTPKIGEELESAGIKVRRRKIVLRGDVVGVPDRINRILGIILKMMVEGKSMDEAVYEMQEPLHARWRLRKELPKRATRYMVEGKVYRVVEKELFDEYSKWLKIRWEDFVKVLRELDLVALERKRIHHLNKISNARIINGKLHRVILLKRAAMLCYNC
TkTrm10 (Thermococcus kodakarensis, UniProt Q5JD38, D206L), sequence (Q5JD38 whole entry D206L): as the sequence (Q5JD38 whole entry) above, with D206L counted along it
TkTrm10 (Thermococcus kodakarensis, UniProt Q5JD38, D206A/D245A), sequence (Q5JD38 whole entry D206A/D245A): as the sequence (Q5JD38 whole entry) above, with D206A, D245A counted along it
TkTrm10 (Thermococcus kodakarensis, UniProt Q5JD38, D206N/D245N), sequence (Q5JD38 whole entry D206N/D245N): as the sequence (Q5JD38 whole entry) above, with D206N, D245N counted along it

One may read the Kd as a measure of binding affinity in units of concentration. A low value points to a tighter complex. In the case of `C[S+](CC[C@H](N)C(=O)O)C[C@H]1O[C@@H](n2cnc3c(N)ncnc32)[C@H](O)[C@@H]1O` (stereo partly shown) [SAM], the Kd at TkTrm10 [1] was 9.4 ± 1.2 µM; at TkTrm10 [2] it was 20.4 ± 2.9 µM; on TkTrm10 [3], 19.3 ± 3.4 µM; at TkTrm10 [4], 68 ± 19 µM.
